Drawing on patent US20230044787A1, “TRICYCLE DIHYDROIMIDAZOPYRIMIDONE DERIVATIVE, PREPARATION METHOD THEREOF, PHARMACEUTICAL COMPOSITION AND USE THEREOF” (priority 2019, published 2023), this text covers IC50 for 29 molecules.

Structures are written as SMILES.

The first assay addresses T1, Lp-PLA2 (Homo sapiens, UniProt Q13093).
T1 construct: aliquoted and thawed 40 μL of pooled human plasma was previously added; from tissue; host or cells: pooled human plasma
T1 sequence (Q13093 22-441): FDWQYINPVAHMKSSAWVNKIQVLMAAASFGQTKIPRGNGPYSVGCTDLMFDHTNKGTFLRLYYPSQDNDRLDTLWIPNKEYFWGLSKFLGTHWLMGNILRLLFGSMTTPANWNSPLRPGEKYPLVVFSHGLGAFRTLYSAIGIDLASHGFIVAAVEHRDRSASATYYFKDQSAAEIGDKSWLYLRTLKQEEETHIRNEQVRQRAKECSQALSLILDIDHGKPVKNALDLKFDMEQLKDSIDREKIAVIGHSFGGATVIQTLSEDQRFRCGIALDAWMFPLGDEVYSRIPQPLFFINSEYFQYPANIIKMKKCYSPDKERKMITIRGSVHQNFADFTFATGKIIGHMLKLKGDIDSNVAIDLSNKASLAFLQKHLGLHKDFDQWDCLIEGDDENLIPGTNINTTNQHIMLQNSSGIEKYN
Description: Lipoprotein-associated phospholipase A2 (Lp-PLA2) human plasma assay (Thio-PAF assay). The assay is classed as biochemical. The note with it: Comparison of activity data (I); pooled human plasma, 2-thio-PAF substrate, 30-min pre-incubation.
By IC50 is commonly meant the concentration at which inhibition is half-maximal. As for `CC12COCCN1c1cc(OCc3cc(F)c(F)c(F)c3)nc(=O)n1C2` (stereo not drawn) [Example 86], the IC50 turned out to be 6.1 nM.

The assay is the same for the next values; noted with them: Lp-PLA2 human plasma assay (Thio-PAF), pooled human plasma, 30-min pre-incubation at room temperature.
Take `O=c1nc(OCCc2ccc(Oc3ccnc(C(F)(F)F)c3)c(F)c2)cc2n1CC13CC(CN21)C3` [Example 190, 3-(3-fluoro-4-((2-(trifluoromethyl)pyridin-4-yl)oxy)phenethoxy)-7,8-dihydro-1H,6H,9H-7,8a-methanopyrrolo[1′,2′:3,4]imidazo[1,2-c] pyrimidin-1-one]: the IC50 was determined as 5.9 nM. Turning to `O=c1nc(OCc2cc(F)c(Oc3ccnc(OC(F)(F)F)c3)c(F)c2)cc2n1CC13CC(CN21)C3` [Example 37, 3-((3,5-difluoro-4-((2-(trifluoromethoxy)pyridin-4-yl)oxy)benzyl)oxy)-7,8-dihydro-1H,6H,9H-7,8a-methanopyrrolo[1′,2′:3,4] imidazo[1,2-c]pyrimidin-1-one], the IC50 turned out to be 5.8 nM. Consider `N#Cc1cc(Oc2ccc(COc3cc4n(c(=O)n3)C[C@]35CO[C@H](CN43)C5)cc2F)cc(C(F)(F)F)c1` [Example 12], for which the IC50 came to 4.3 nM. Consider `O=c1nc(OCc2cc(F)c(Oc3ccnc(Cl)c3)c(F)c2)cc2n1C[C@@]13CO[C@@H](CN21)C3` [Example 28, (3R,11aS)-7-((4-((2-chloropyridin-4-yl)oxy)-3,5-difluorobenzyl)oxy)-3,4-dihydro-1H,9H,11H-3,11a-methanopyrimido[6′,1′:2,3] imidazo[5,1-c][1,4]oxazin-9-one], for which the IC50 came out at 7.3 nM. In the case of `N#Cc1cc(COc2cc3n(c(=O)n2)CC24CCC(CC2)N34)ccc1Oc1ccc(Cl)c(C(F)(F)F)c1` [Example 50, 5-(((1-oxo-7,8-dihydro-1H,6H,9H-6,8a-ethanopyrrolo[1′,2′:3,4]imidazo[1,2-c]pyrimidin-3-yl)oxy)methyl)-2-(4-chloro-3-(trifluoromethyl)phenoxy) benzonitrile], the IC50 was 2.7 nM. Still for that read-out and setting: the value for `O=c1nc(OCc2cc(F)c(Oc3ccnc(Cl)c3)c(F)c2)cc2n1CC13CC(CN21)C3` [Example 38, 3-((4-((2-chloropyridin-4-yl)oxy)-3,5-difluorobenzyl)oxy)-7,8-dihydro-1H,6H,9H-7,8a-methanopyrrolo[1′,2′:3,4] imidazo[1,2-c]pyrimidin-1-one] was 8.5 nM; that for `O=c1nc(OCc2cc(F)c(Oc3ccnc(C(F)(F)F)c3)c(F)c2)cc2n1C[C@]13CO[C@H](CN21)C3` [Example 1] was 4.4 nM; that for `CN1C[C@]23C[C@H]1CN2c1cc(OCc2ccc(Oc4ccnc(C(F)(F)F)c4)c(F)c2)nc(=O)n1C3` [Example 171, (3S,11aS)-7-((3-Fluoro-4-((2-(trifluoromethyl)pyridin-4-yl)oxy)benzyl)oxy)-2-methyl-1,2,3,4-tetrahydro-9H,11H-3,11a-methanopyrazino[1′, 2′:3, 4]imidazo[1,2-c]pyrimidin-9-one] was 2.1 nM. `N#Cc1cc(CCOc2cc3n(c(=O)n2)C[C@]24CO[C@H](CN32)C4)ccc1Oc1ccnc(C(F)(F)F)c1` [Example 101, 5-(2-(((3S,11aR)-9-oxo-3,4-dihydro-1H,9H,11H-3,11a-methanopyrimido[6′-,1′:2,3]imidazo[5,1-c][1,4]oxazin-7-yl)oxy)ethyl)-2-((2-(trifluoromethyl)pyridin-4-yl)oxy)benzonitrile]: the half-maximal inhibitory concentration (IC50) is 15.1 nM. The same measure, in the same setting: the value for `O=c1nc(OCc2cc(F)c(Oc3ccc(C(F)(F)F)nc3)c(F)c2)cc2n1C[C@@]13CO[C@@H](CN21)C3` [Example 30, (3R,11aS)-7-((3,5-difluoro-4-((6-(trifluoromethyl)pyridin-3-yl)oxy)benzyl)oxy)-3,4-dihydro-1H,9H,11H-3,11a-methanopyrimido[6′,1′:2,3] imidazo[5,1-c][1,4]oxazin-9-one] was 6.8 nM. Same read-out and setting: the value for `O=c1nc(OCc2ccc(Oc3ccc(Cl)c(C(F)(F)F)c3)cc2)cc2n1C[C@]13CO[C@H](CN21)C3` [Example 16, (3S,11aR)-7-((4-(4-chloro-3-(trifluoromethyl)phenoxy)benzyl)oxy)-3,4-dihydro-1H,9H,11H-3,11a-methanopyrimido[6′,1′:2,3] imidazo[5,1-c][1,4]oxazin-9-one] was 5.2 nM; that for `CCC12CCCCN1c1cc(OCc3ccc(Oc4cccc(C(F)(F)F)c4)c(C#N)c3)nc(=O)n1C2` (stereo not drawn) [Example 77, 5-(((9a-ethyl-1-oxo-6,7,8,9,9a,10-hexahydro-1H-pyrido[1′,2′:3,4]imidazo [1,2-c]pyrimidin-3-yl)oxy)methyl)-2-(3-(trifluoromethyl)phenoxy) benzonitrile] was 5.7 nM. In the case of `COc1c(NCc2ccc(F)c(F)c2)nc(=O)n2c1N1C[C@@H]3C[C@]1(CO3)C2` [Example 175, (3S,11aR)-7-((3,4-Difluorobenzyl)amino)-6-methoxy-3,4-dihydro-1H,9H,11H-3,11a-methanopyrimido[6′, 1′:2, 3]imidazo[5,1-c] [1, 4]oxazin-9-one], the IC50 stood at 168 nM. On the same count and under the same terms, the value for `CC12COCCN1c1cc(OCc3ccc(Oc4ccc(Cl)c(C(F)(F)F)c4)c(C#N)c3)nc(=O)n1C2` (stereo not drawn) [Example 84] was 6.2 nM. `CC12CCCCN1c1cc(OCc3cc(F)c(Oc4ccnc(C(F)(F)F)c4)c(F)c3)nc(=O)n1C2` (stereo not drawn) [Example 66, 3-((3,5-difluoro-4-((2-(trifluoromethyl)pyridin-4-yl)oxy)benzyl)oxy)-9a-methyl-6,7,8,9,9a,10-hexahydro-1H-pyrido[1′,2′:3,4]imidazo [1,2-c]pyrimidin-1-one]: the IC50 is 6.9 nM.

In the case of `O=c1nc(OCc2ccc(Oc3ccnc(C(F)F)c3)cc2)cc2n1CC13CC(CN21)C3` [Example 161], the IC50 turned out to be 18.1 nM. On to `N#Cc1cc(COc2cc3n(c(=O)n2)CC24CC(CN32)C4)ccc1Oc1ccnc(C(F)(F)F)c1` [Example 43], for which the IC50 stood at 4 nM.

For `O=c1nc(OCc2cc(F)c(Oc3ccc(C(F)(F)F)cc3)c(F)c2)cc2n1C[C@]13CO[C@H](CN21)C3` [Example 144, (3S,11aR)-7-((3,5-difluoro-4-(4-(trifluoromethyl)phenoxy)benzyl)oxy)-3,4-dihydro-1H,9H,11H-3,11a-methanopyrimido[6′1′:2,3] imidazo[5,1-c][1,4]oxazin-9-one], the IC50 was 2.4 nM. In the case of `O=c1nc(OCc2ccc(Oc3ccnc(C(F)(F)F)c3)c(F)c2)cc2n1C[C@@]13C[C@@H](CN21)N(C1COC1)C3` [Example 172], the concentration for half-maximal inhibition (IC50) was determined as 2.2 nM. Consider `CC12COCCN1c1cc(OCc3cc(F)c(F)c(F)c3)nc(=O)n1C2` (stereo not drawn) [Example 86], for which the IC50 was 6.1 nM. Turning to `N#Cc1cc(Oc2ccc(COc3cc4n(c(=O)n3)C[C@@]35CO[C@@H](CN43)C5)cc2F)cc(C(F)(F)F)c1` [Example 31], the IC50 was found to be 7.1 nM. In the case of `O=c1nc(OCc2cc(F)c(Oc3ccnc(C(F)(F)F)c3)c(F)c2)cc2n1CC13CCC(CC1)CN23` [Example 53, 3-((3,5-difluoro-4-((2-(trifluoromethyl)pyridin-4-yl)oxy)benzyl)oxy)-6,7,8,9-tetrahydro-1H,10H-7,9a-ethanopyrido[1′,2′:3,4] imidazo[1,2-c]pyrimidin-1-one], the IC50 is 14.3 nM. Consider `O=c1nc(OCc2cc(F)c(F)c(F)c2)cc2n1CC13CC(CN21)C3` [Example 98, 3-((3,4,5-trifluorobenzyl)oxy)-7,8-dihydro-1H,6H,9H-7,8a-methanopyrrolo[1′,2′:3,4] imidazo[1,2-c]pyrimidin-1-one], for which the IC50 came out at 30.2 nM.

As for `O=c1nc(OCc2cc(F)c(Oc3ccnc(C(F)(F)F)c3)c(F)c2)c(Cl)c2n1C[C@]13CO[C@H](CN21)C3` [Example 91, (3S,11aR)-7-((3,5-difluoro-4-((2-(trifluoromethyl)pyridin-4-yl)oxy)benzyl)oxy)-6-chloro-3,4-dihydro-1H,9H,11H-3,11a-methanopyrimido[6′,1′:2,3] imidazo[5,1-c][1,4]oxazin-9-one], the IC50 was 4.8 nM. As to `O=c1nc(OCc2ccc(Oc3ccnc(C(F)(F)F)c3)cc2)cc2n1C[C@]13CO[C@H](CN21)C3` [Example 15, (3S,11aR)-7-((4-((2-(trifluoromethyl)pyridin-4-yl)oxy)benzyl)oxy)-3,4-dihydro-1H,9H,11H-3,11a-methanopyrimido[6′,1′:2,3] imidazo[5,1-c][1,4]oxazin-9-one], the IC50 was found to be 6.6 nM. Turning to `CC12CCCCN1c1cc(OCc3ccc(Oc4ccc(F)c(C(F)(F)F)c4)nc3)nc(=O)n1C2` (stereo not drawn) [Example 69, 3-((6-(4-fluoro-3-(trifluoromethyl)phenoxy)pyridin-3-yl)methoxy)-9a-methyl-6,7,8,9,9a,10-hexahydro-1H-pyrido[1,2′:3,4]imidazo [1,2-c]pyrimidin-1-one], the IC50 was found to be 325 nM. For `CC12CCCCN1c1cc(OCc3ccc(Oc4ccc(Cl)c(F)c4)c(C#N)c3)nc(=O)n1C2` (stereo not drawn) [Example 72, 2-(4-chloro-3-fluorophenoxy)-5-(((-9a-methyl-1-oxo-6,7,8,9,9a,10-hexahydro-1H-pyrido[1′,2′:3,4]imidazo [1,2-c]pyrimidin-3-yl)oxy)methyl)benzonitrile], the IC50 was 7.6 nM.

For `Cn1cc(Oc2c(F)cc(COc3cc4n(c(=O)n3)CC3(C)CCCCN43)cc2F)cn1` (stereo not drawn) [Example 68, 3-((3,5-difluoro-4-((1-methyl-1H-pyrazol-4-yl)oxy)benzyl)oxy)-9a-methyl-6,7,8,9,9a,10-hexahydro-1H-pyrido[1′,2′:3,4]imidazo [1,2-c]pyrimidin-1-one], the IC50 turned out to be 50 nM. The same measure, in the same setting: the value for `O=c1nc(OCc2cc(F)c(Oc3ccnc(C(F)(F)F)c3)c(F)c2)cc2n1CC13CCC(CC1)N23` [Example 46, 3-((3,5-difluoro-4-((2-(trifluoromethyl)pyridin-4-yl)oxy)benzyl)oxy)-7,8-dihydro-1H,6H,9H-6,8a-ethanopyrrolo[1′,2′:3,4] imidazo[1,2-c]pyrimidin-1-one] was 15.3 nM.
